# Test results reported in ChEMBL document CHEMBL4346685, “Naphthyl quinoxaline thymidine conjugate is a potent anticancer agent post UVA activation and elicits marked inhibition of tumor growth through vaccination” (Eur J Med Chem, 2019).
# Active and inactive are the calls of the source. The rule behind the calls is not given here.
# Assays:
# Bel-7402 [1] = experiment: Antiproliferative activity against human Bel7402 cells assessed as reduction in cell viability preincubated for 5 hrs followed by compound washout and subsequent 3 mW/cm2 UVA irradiation for 20 mins measured 48 hrs post irradiation by CCK8 assay; format: functional, cell-based; details: Bel-7402, light or radiation study
# H22 [2] = experiment: Induction of immunogenic cell death in mouse H22 cells assessed as extracellular ATP level at 250 nM preincubated for 5 hrs followed by compound washout and subsequent 2 mW/cm2 UVA irradiation for 20 mins measured 2 hrs post irradiation by chemiluminescence-based assay; format: functional
# H22 [3] = experiment: Dark toxicity against mouse H22 cells up to 500 nM preincubated for 5 hrs followed by compound washout and measured after 48 hrs by CCK8 assay; format: cell-based; details: h22, 48 h
# H22 [4] = experiment: (§1) Antitumor activity against mouse H22 cells allografted in immunocompetent Balb/c mouse assessed as decrease in tumour formation at challenge site at 250 nM incubated with cells for 5 hrs followed by compound washout before 2 mW/cm2 UVA irradiation for 20 mins and followed by vaccination and subsequent H22 cells addition 10 days post vaccination and measured after 2 months; format: functional, cell-based
# A-375 [5] = experiment: Antiproliferative activity against human A375 cells assessed as reduction in cell viability preincubated for 5 hrs followed by compound washout and subsequent 3 mW/cm2 UVA irradiation measured 48 hrs post irradiation by CCK8 assay; format: functional, cell-based; details: A-375, light or radiation study
# H22 [6] = experiment: Induction of immunogenic cell death in mouse H22 cells assessed as extracellular HMGB1 level at 120 to 250 nM preincubated for 5 hrs followed by compound washout and subsequent 2 mW/cm2 UVA irradiation measured 2 hrs post irradiation by ELISA; format: functional
# H22 [7] = experiment: as §1, with “weeks” for “months”; format: functional, cell-based
# H22 [8] = experiment: (§2) Induction of immunogenic cell death in mouse H22 cells assessed as increase in intracellular calreticulin level at 60 to 250 nM preincubated for 5 hrs followed by compound washout and subsequent 2 mW/cm2 UVA irradiation for 20 mins measured 2 hrs post irradiation by flow cytometric analysis; format: functional, cell-based
# H22 [9] = experiment: Antitumor activity against mouse H22 cells allografted in immunocompetent Balb/c mouse assessed as inhibition of tumour formation at 60 nM incubated with cells for 5 hrs prior to 20 mins 2 mW/cm2 UVA irradiation post compound washout followed by vaccination and measured over 10 days; format: functional, cell-based
# MCF7 [10] = experiment: Induction of reactive oxygen species generation in human MCF7 cells up to 200 nM preincubated for 5 hrs followed by compound washout and subsequent 3 mW/cm2 UVA irradiation measured 10 mins post irradiation by DCFH-DA probe based fluorescence microscopic analysis; format: functional, cell-based
# [11] = Toxicity in immunocompetent BALB/c mouse allografted with mouse H22 cells assessed as change in body weight at 250 nM incubated with cells for 5 hrs followed by compound washout before 2 mW/cm2 UVA irradiation for 20 mins and followed by vaccination and subsequent H22 cells addition 10 days post vaccination and measured over 30 days; details: 0.25 µM
# Bel-7402 [12] = experiment: Dark toxicity against human Bel7402 cells up to 500 nM incubated for 5 hrs followed by compound washout and measured after 48 hrs by CCK8 assay; format: cell-based; details: bel-7402, 5 h
# A-375 [13] = experiment: Dark toxicity against human A375 cells up to 500 nM preincubated for 5 hrs followed by compound washout and measured after 48 hrs by CCK8 assay; format: cell-based; details: a-375, 48 h
# H22 [14] = experiment: as §1, with “on day 25” for “after 2 months”; format: functional, cell-based
# H22 [15] = experiment: Induction of immunogenic cell death in mouse H22 cells assessed as […] in extracellular ATP level at 250 nM incubated for 5 hrs followed by compound washout and subsequent 2 mW/cm2 UVA irradiation measured 5 hrs post irradiation by chemiluminescence-based assay; format: functional
# H22 [16] = experiment: Antitumor activity against mouse H22 cells allografted in immunocompetent Balb/c mouse assessed as decrease in lump formation at vaccination site at 250 nM incubated with cells for 5 hrs prior to 20 mins 2 mW/cm2 UVA irradiation post compound washout followed by vaccination and measured over 30 days; format: functional, cell-based
# MCF7 [17] = experiment: Antiproliferative activity against human MCF7 cells assessed as reduction in cell viability preincubated for 5 hrs followed by compound washout and subsequent 3 mW/cm2 UVA irradiation measured 48 hrs post irradiation by CCK8 assay; format: functional, cell-based; details: MCF7, light or radiation study
# H22 [18] = experiment: Antiproliferative activity against mouse H22 cells assessed as reduction in cell viability preincubated for 5 hrs followed by compound washout and subsequent 2 mW/cm2 UVA irradiation measured 48 hrs post irradiation by CCK8 assay; format: functional, cell-based; details: H22, light or radiation study
# H22 [19] = experiment: Dark toxicity in mouse H22 cells assessed as increase in extracellular HMGB1 level at 120 to 250 nM incubated for 5 hrs by ELISA; format: cell-based; details: h22, 5 h, 0.25 µM
# H22 [20] = experiment: Dark toxicity in mouse H22 cells assessed as increase in intracellular calreticulin level at 60 to 250 nM measured after 5 hrs by flow cytometric analysis; format: cell-based; details: h22, 5 h, 0.25 µM
# H22 [21] = experiment: Antitumor activity against mouse H22 cells allografted in immunocompetent Balb/c mouse assessed as inhibition of tumour formation at 250 nM incubated with cells for 5 hrs prior to 20 mins 2 mW/cm2 UVA irradiation post compound washout followed by vaccination and measured within 5 days; format: functional, cell-based
# MCF7 [22] = experiment: Dark toxicity against human MCF7 cells up to 500 nM preincubated for 5 hrs followed by compound washout and measured after 48 hrs by CCK8 assay; format: cell-based; details: mcf7, 48 h
# H22 [23] = experiment: as §2, with “irradiation” for “irradiation for 20 mins”, “Hoechst staining based fluorescence microscopic” for “flow cytometric”; format: functional
# H22 [24] = experiment: Antitumor activity against mouse H22 cells allografted in immunocompetent Balb/c mouse assessed as inhibition of tumour formation at 60 nM incubated with cells for 5 hrs prior to 20 mins 2 mW/cm2 UVA irradiation post compound washout followed by vaccination and measured over 20 days; format: functional, cell-based
# H22 [25] = experiment: Induction of immunogenic cell death in mouse H22 cells assessed as increase in intracellular calreticulin level at 2 uM measured after 5 hrs by flow cytometric analysis; format: functional, cell-based
# H22 [26] = experiment: Antitumor activity against mouse H22 cells allografted in immunocompetent Balb/c mouse assessed as decrease in lump formation at challenge site at 2 uM incubated with cells for 5 hrs followed by compound washout prior to vaccination and subsequent H22 cells addition 10 days post vaccination and measured over 30 days; format: functional, cell-based
# [27] = Dark toxicity against mouse H22 cells assessed as reduction in cell viability preincubated for 5 hrs followed by compound washout and measured after 48 hrs by CCK8 assay; format: cell-based
# Bel-7402 [28] = experiment: Cytotoxicity against human Bel7402 cells assessed as reduction in cell viability preincubated for 5 hrs followed by compound washout and measured after 48 hrs by CCK8 assay; format: functional, cell-based
# H22 [29] = experiment: Induction of immunogenic cell death in mouse H22 cells assessed as increase in calreticulin level in cell surface at 2 uM incubated for 5 hrs by Hoechst staining based fluorescence microscopic analysis; format: functional
# H22 [30] = experiment: Induction of immunogenic cell death in mouse H22 cells assessed as extracellular ATP level at 2 uM measured after 24 hrs by chemiluminescence-based assay; format: functional
# MCF7 [31] = experiment: Cytotoxicity against human MCF7 cells assessed as reduction in cell viability preincubated for 5 hrs followed by compound washout and measured after 48 hrs by CCK8 assay; format: functional, cell-based
# H22 [32] = experiment: Antitumor activity against mouse H22 cells allografted in immunocompetent Balb/c mouse assessed as inhibition of tumour formation at 2 uM incubated with cells for 5 hrs prior to 20 mins 2 mW/cm2 UVA irradiation post compound washout followed by vaccination and measured within 5 days; format: functional, cell-based
# H22 [33] = experiment: Induction of immunogenic cell death in mouse H22 cells assessed as increase in extracellular HMGB1 level at 2 uM incubated for 5 hrs by ELISA; format: functional, cell-based
# H22 [34] = experiment: Induction of immunogenic cell death in mouse H22 cells assessed as increase in extracellular ATP level at 2 uM measured after 5 hrs by chemiluminescence-based assay; format: functional
# H22 [35] = experiment: Antitumor activity against mouse H22 cells allografted in immunocompetent Balb/c mouse assessed as decrease in lump formation in vaccination site at 2 uM incubated with cells for 5 hrs prior to 20 mins 2 mW/cm2 UVA irradiation post compound washout followed by vaccination and measured over 30 days; format: functional, cell-based
# A-375 [36] = experiment: Cytotoxicity against human A375 cells assessed as reduction in cell viability preincubated for 5 hrs followed by compound washout and measured after 48 hrs by CCK8 assay; format: functional, cell-based
smiles,measurement,setting,value
Cc1cn([C@H]2C[C@H](n3cc(CNC(=O)CCCCCOc4ccc5c(c4)-c4nc6ccccc6nc4[C@@H]4C(C)(C)CCC[C@]54C)nn3)[C@@H](CO)O2)c(=O)[nH]c1=O,IC50,Bel-7402 [1],251 nM
Cc1cn([C@H]2C[C@H](n3cc(CNC(=O)CCCCCOc4ccc5c(c4)-c4nc6cc7ccccc7cc6nc4[C@H]4C(C)(C)CCC[C@]54C)nn3)[C@@H](CO)O2)c(=O)[nH]c1=O,Activity,H22 [2],335 nM
same,Activity,H22 [3],Non-Toxic
same,inhibition,H22 [4],Active
same,IC50,A-375 [5],25.3 nM
same,IC50,Bel-7402 [1],26.6 nM
same,Activity,H22 [6],3 ng/mL
same,inhibition,H22 [7],Active
same,Activity,H22 [8],Active
same,inhibition,H22 [9],inactive
same,Activity,MCF7 [10],Active
same,Activity,[11],Non-Toxic
same,Activity,Bel-7402 [12],Non-Toxic
same,Activity,A-375 [13],Non-Toxic
same,inhibition,H22 [14],Active
same,Activity,H22 [15],Active
same,Activity,H22 [16],Active
same,IC50,MCF7 [17],23.5 nM
same,IC50,H22 [18],28.8 nM
same,Activity,H22 [19],Non-Toxic
same,Activity,H22 [20],Non-Toxic
same,inhibition,H22 [21],Active
same,Activity,MCF7 [22],Non-Toxic
same,Activity,H22 [23],Active
same,inhibition,H22 [24],inactive
O=C1c2c(O)ccc(O)c2C(=O)c2c(NCCNCCO)ccc(NCCNCCO)c21 [MITOXANTRONE],Activity,H22 [25],Active
same,inhibition,H22 [26],inactive
same,IC50 at 5 h,[27],187 nM
same,IC50,Bel-7402 [28],117 nM
same,IC90,Bel-7402 [28],1300 nM
same,Activity,H22 [29],Active
same,Activity,H22 [30],9 nM
same,IC50,MCF7 [31],380 nM
same,inhibition,H22 [32],Active
same,Activity,H22 [33],inactive
same,Activity,H22 [34],inactive
same,Activity,H22 [35],Active
same,IC50,A-375 [36],112 nM
C=CC1=C(C)c2cc3[nH]c(cc4nc(cc5[nH]c(cc1n2)c(C)c5CCC(=O)O)C(CCC(=O)O)=C4C)c(C)c3C=C [PROTOPORPHYRIN],IC50,Bel-7402 [1],310 nM
Cc1cn([C@H]2C[C@H](n3cc(CNC(=O)CCCCCOc4ccc5c(c4)-c4nc6cc7ccccc7cc6nc4[C@@H]4C(C)(C)CCC[C@]54C)nn3)[C@@H](CO)O2)c(=O)[nH]c1=O,Activity,H22 [3],Non-Toxic
same,IC50,A-375 [5],44 nM
same,IC50,Bel-7402 [1],44.3 nM
same,Activity,Bel-7402 [12],Non-Toxic
same,Activity,A-375 [13],Non-Toxic
same,IC50,MCF7 [17],49.6 nM
same,IC50,H22 [18],32 nM
same,Activity,MCF7 [22],Non-Toxic
